{"source": "patent US20240067603A1", "about": "“CUBANYL BIGUANIDE COMPOUNDS” (REGENTS OF THE UNIVERSITY OF MINNESOTA, priority 2020, published 2024)", "key": {"[1]": {"tested_on": "T47D", "test": "Inhibition of mammary carcinoma cell line T47D", "assay_type": "cell-based", "conditions": "Table 5, human, ERα+, HER2−", "method": "3-(4,5-Dimethylthiazol-2-yl)-2,5-diphenyltetrazolium Bromide (MTT) Cell Proliferation Assay. To cells grown in 96-well-tissue culture plate, 20 μl/well of MTT solution (5 mg/ml in PBS) was added. After 1-2 hours incubation at 37° C., the plate was centrifuged. Supernatant was discarded and 100 μl DMSO was added to dissolve water insoluble formazan, and the absorbance was read at 540 nm with a plate reader."}, "[2]": {"test": "Toxicity / tolerance of dosing in mice", "assay_type": "in vivo", "method": "Study 1 was performed by dose escalation of SC HBB from 4 mg/kg qd to 12 mg/kg qd with female CD-1 mice (Envigo) approximately 4-8 weeks of age. N=5 mice per HBB dose group, n=10 naïve control mice.\nStudy 2 two was performed by dose escalation of SC HBB from 16 mg/kg qd to 24 mg/kg qd with female BALB/c mice (Envigo) approximately 6-8 weeks of age. N=4 mice per HBB dose group, n=3 naïve control mice\nStudy 3 was performed by dose escalation of SC HBB from 16 mg/kg qd to 24 mg/kg qd with female C57BL/6 mice (CR) approximately 6-8 weeks of age. N=12 for HBB dose group, n=3 naïve control mice."}, "[3]": {"tested_on": "MCF-7 tumors", "conditions": "background statement; cited from earlier work"}, "[4]": {"tested_on": "mm001", "test": "Oxygen consumption rate (OCR), mm001", "assay_type": "cell-based, mouse (C57BL/6)", "method": "Measurement of oxygen consumption rate (OCR). Cells were maintained in growth medium consisting of 10% FBS at 37° C. with 5% CO2 and seeded at 25,000 cells per well in a 96-well XF96 cell culture microplates (Agilent, Santa Clara, CA). An 96 well XF sensor cartridge was hydrated and equilibrated with 200 ul calibrant in each well at 37° C. without CO2 overnight. Growth media was replaced with 150 μL DMEM based assay media (a non-buffered medium including 2 mM L-glutamine but no sodium bicarbonate (buffering agent), glucose, or sodium pyruvate, Agilent, Santa Clara, CA) the next day and cells were incubated CO2 free for 1 hour before the measurement of OCR by a Seahorse XFe Extracellular Flux Analyzer (Agilent, Santa Clara, CA), which measures uptake and excretion of metabolic end products in real time. After baseline measurements, 20 μl assay medium containing control vehicle or drugs were injected into corresponding wells. OCRs were measured periodically and can be reported in pmoles/minute or normalized against baseline measurements before treatment."}, "[5]": {"target": "T1, CYP3A4 (Homo sapiens, UniProt P08684)", "test": "CYP3A4 binding by Soret band spin shift analysis", "conditions": "FIG. 16, read-out: estimated Kd", "method": "HCB induces a low-to-high spin transition in 3A4, meaning that it binds within the active site near the heme (FIG. 16).\nA. HBB binds soluble CYP3A4 Δ3-22, dependent on the heme iron. The HBB binding spectrum is shown in red. Control spectra with dithionite reduction (blue) and CO adduct formation (green) are shown as well as untreated CYP3A4 Δ3-22 (black). B. HBB docked to truncated CYP3A4 Δ3-22 induces a low to high spin shift (left) with a Ks=74±7 μM (right). (FIG. 16)"}, "[6]": {"target": "T1, CYP3A4", "test": "Midazolam hydroxylation by CYP3A4 in Nanodiscs", "assay_type": "biochemical", "method": "Titration of ˜6 uM CYP3A4 in POPC Nanodiscs was done using 16 mM stock solution obtained by 6-fold dilution of the original 100 mM DMSO solution in methanol. Aliquots of 0.1-0.2 μL were added to 120 μL solution of CYP3A4-ND in semi-micro cell (10 mm pathlength). Spectra with background corrected for scattering are shown in FIG. 17, and titration data points in FIG. 18.\nThese concentrations were selected based on IC50 for arachidonic acid metabolism mentioned in the first e-mail (low HCB concentration) and on our titration results. We used seven MDZ concentrations and measured both 1 OH and 4 OH hydroxy-MDZ products using HPLC with absorbance detection at 240 nm. Results are shown below in FIG. 19."}, "[7]": {"target": "T2, CYP2C8 (Homo sapiens, UniProt P10632)", "T2 construct": "purchased Corning; host or cells: insect cells (microsomes)", "T2 sequence (P10632 1-490)": "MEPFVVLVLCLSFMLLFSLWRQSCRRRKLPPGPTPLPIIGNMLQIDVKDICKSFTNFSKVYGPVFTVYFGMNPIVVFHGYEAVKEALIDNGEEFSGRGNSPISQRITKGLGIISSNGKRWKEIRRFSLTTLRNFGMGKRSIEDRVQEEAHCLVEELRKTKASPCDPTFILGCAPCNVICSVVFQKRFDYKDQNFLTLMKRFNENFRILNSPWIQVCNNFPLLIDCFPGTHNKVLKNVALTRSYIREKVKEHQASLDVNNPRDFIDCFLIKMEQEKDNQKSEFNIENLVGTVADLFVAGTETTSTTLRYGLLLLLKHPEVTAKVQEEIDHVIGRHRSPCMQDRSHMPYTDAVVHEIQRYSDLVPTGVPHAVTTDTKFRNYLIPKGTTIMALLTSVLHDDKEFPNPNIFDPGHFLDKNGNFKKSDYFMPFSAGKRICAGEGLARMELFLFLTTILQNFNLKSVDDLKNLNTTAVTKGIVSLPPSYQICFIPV", "test": "Stability with recombinant human CYP2C8", "assay_type": "in vitro ADME", "conditions": "10 μM HCB, recombinant human CYP2C8, NADPH 2 mM", "method": "Stability of HCB with recombinant human CYP3A4 and CYP2C8 enzymes was evaluated. 10 μM HCB was tested wich CYP3A4 and 2C8 (200 pmol/L) (Table 8). NADPH (2 mM) was added as a cofactor. Total volume was 200 μL.\nHCB was incubated for 0, 30, or 60 min at 37° C. Incubations were quenched with 2 volumes of acetonitrile followed by centrifugation for 10 min at 16,000 g."}}}
{"smiles": "CCCCCCNC(=N)NC(=N)NCc1ccccc1", "note": "[HBB, N1-hexyl-N5-benzyl-biguanide]", "values": [{"measurement": "IC50", "setting": "[1]", "result": 22, "unit": "µM"}, {"measurement": "tolerance of daily SC dosing above 12 mg/kg", "setting": "[2]; SC 16 to 24 mg/kg qd, female BALB/c mice, FIG. 21", "result": "not as well tolerated"}, {"measurement": "tolerance of dose escalation", "setting": "[2]; daily SC 4 to 12 mg/kg over approximately 2 months, female CD-1 mice, FIG. 20", "result": "well tolerated"}, {"measurement": "MTD", "setting": "[2]; female, CD-1 (Study 1), BALB/c (Study 2), C57BL/6 (Study 3), mouse, in vivo, sc, daily", "result": 12, "unit": "mg/kg"}, {"measurement": "effect on splenic or lymph node CD4 or CD8 T cells", "setting": "[2]; mice", "result": "no observed effect"}, {"measurement": "toxicity in mice", "setting": "[2]; mouse, in vivo", "result": "acceptable toxicity"}, {"measurement": "MTD", "setting": "[2]; mouse, in vivo, ip, 4 times per week, no more than 2 consecutive days", "result": 6, "unit": "mg/kg"}, {"measurement": "tolerance of daily SC dosing", "setting": "[2]; study day 3 to day 26, female C57BL/6 mice, FIG. 22", "result": "well tolerated"}, {"measurement": "growth of the MCF-7 ER+ mammary tumor model", "setting": "[3]", "result": "inhibits growth"}]}
{"smiles": "CCCCCCNC(=N)NC(=N)NCC12C3C4C5C3C1C5C42", "note": "(centres unmarked) [HCB, Hexyl Cubanomethyl Biguanide]", "values": [{"measurement": "OCR Inhibition [HCB] (uM) v vs. control (P < 0.05)", "setting": "[4]", "result": 10, "unit": "µM"}, {"measurement": "Kd", "setting": "[5]", "result": 74, "unit": "µM"}, {"measurement": "inhibition of MDZ hydroxylation", "setting": "[6]; 5.9 uM HCB, CYP3A4 Nanodiscs", "result": "Significant inhibition"}, {"measurement": "effect on the 1 OH/4 OH ratio of MDZ hydroxylation", "setting": "[6]; 64 uM HCB", "result": "clear and reproducible effect"}, {"measurement": "parent metabolite peak area after 60 min", "setting": "[7]", "result": 99.78, "unit": "%"}]}
